# From US20080292616A1, “Topical Formulations of Histone Deacetylase Inhibitors and Methods Using the Same” (Government of the United of America, Represented by the …, priority 2005, published 2008)
# How the values were obtained:
# rabbits = assay: Topical tolerability study in rabbits, three times weekly for 4 weeks (Example 2); format: in vivo, rabbit
# Experimental: The dose used is again 2.5/mg/kg/d (30 mg/m2/d) FR901228 or vehicle in AC, but is applied topically, 4 hrs. a day, for 4 weeks, three times weekly. The study parameters include weekly clinical pathology and histopathology takes place at days 27 and 41. The compositions are applied to substantially all of the rabbit's back. In the case of a human patient or other diseased subject, the composition can be applied to disease-affected and/or non-affected surface areas.
# [1] = test system: New Zealand white rabbits; assay: Topical toxicity study in rabbits, 4 hours daily application (Example 1); conditions: 2.5 mg/kg topically for 14 days
# Experimental: A study uses New Zealand white rabbits to determine topical toxicity of the depsipeptide FR901228 when applied topically in either Cetaphil° lotion (CL) or Aquaphor cream (AC).
# The dose of depsipeptide is 2.5 mg/kg/day (30 mg/m2/d); controls receive vehicle (Aquaphor or Cetaphil) in place of depsipeptide. A highly intense dosing regimen is employed to study toxicity. The study is designed for application of the respective topical composition to the rabbits for 4 hours daily for 28 days. The four-hour application is accomplished by removing the applied composition approximately four hours after application. Four groups of rabbits (2 rabbits/sex/group) are used with two control and two experimental groups. The control groups receive carrier alone (CL or AC) and the experimental groups receive FR901228 in the respective carriers. The experimental parameters include weekly testing of clinical pathology and plasma drug levels. Histopathology is performed at days 15 and 28.
# [2] = intravenous infusion over 4 hours on days 1 and 5 of a 21-day cycle; cited from earlier work
# [3] = FR901228 in AC, 2.5 mg/kg/d topical, 4 hrs a day, 4 weeks
smiles,measurement,setting,value
"C/C=C1\NC(=O)[C@H]2CSSCC/C=C/[C@H](CC(=O)N[C@H](C(C)C)C(=O)N2)OC(=O)[C@H](C(C)C)NC1=O [FR901228, (E)-(1S, 4S, 10S, 21R)-7-[(Z)-ethylidene]-4,21-diisopropyl-2-oxa-12,13-dithia-5,8,20,23-tetraazabicyclo [8,7,6]-tricos-16-ene-3,6,19,22-pentanone]",Draize scoring,rabbits; [3],slight to well-defined
same,onset of red skin at the application site,rabbits; [3],9 days
same,pathology: microscopic lesions at the application site,"rabbits; day 27, FR901228 in AC",ulcers of minimal severity
same,increased FBN,"rabbits; days 4, 11, and 27, FR901228 in AC",1.6-2 ×
same,skin toxicity at the application site (conclusion),[1],significant skin toxicity at the application site
same,maximum tolerated dose,[2],17.8 mg/m2
